According to patent US9375388B2, “Nanoparticle based cosmetic composition” (Indian Institute of Technology, priority 2011, dated 2016):

Assay: Confocal laser scanning microscopy of skin penetration of dye
Type: in vitro ADME
Conditions: CLSM of rat skin, calcein dye (FIG. 2)
Source text: FIG. 2. CLSM image of rat skin: without calcein dye under (a) calcein filter (b) bright field; with free calcein solution under (c) calcein filter (d) bright field; with calcein-loaded SPC liposomes under (e) calcein filter (f) bright field.

For `O=C(O)CN(CC(=O)O)Cc1cc2c(cc1O)Oc1cc(O)c(CN(CC(=O)O)CC(=O)O)cc1C21OC(=O)c2ccccc21` [free dye, calcein], the “Penetration of dye through skin” value was “visible only at the surface of the skin and around the hair follicles”.
